The target in one test is T1, C-CBL (residues 46-435) (Homo sapiens, UniProt P22681).
T1 construct: Purified CBL-B (residues 36-427) and C-CBL (residues 46-435) proteins from baculovirus-infected insect cells; made in house; host or cells: baculovirus-infected insect cells
T1 sequence (P22681 46-435): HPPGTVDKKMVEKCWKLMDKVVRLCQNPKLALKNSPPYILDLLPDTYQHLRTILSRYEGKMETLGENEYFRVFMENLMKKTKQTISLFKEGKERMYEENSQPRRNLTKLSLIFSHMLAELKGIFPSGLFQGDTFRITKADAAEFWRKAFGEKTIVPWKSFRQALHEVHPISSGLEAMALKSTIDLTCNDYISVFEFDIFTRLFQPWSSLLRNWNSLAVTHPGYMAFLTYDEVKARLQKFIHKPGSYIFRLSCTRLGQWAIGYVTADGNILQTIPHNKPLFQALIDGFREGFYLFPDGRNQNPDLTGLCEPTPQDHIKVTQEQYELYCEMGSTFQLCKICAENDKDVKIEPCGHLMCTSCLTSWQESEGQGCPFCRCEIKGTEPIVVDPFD
Put plainly: Ligand Displacement Assay (LDA), HTRF competitive binding against BODIPY-labeled fluorescent tracer, C-CBL. To be noted: geometric mean of the number of tests, read-out: C-CBL Ki (nM) GMean. The text has this: (§1) Ligand Displacement Assay (LDA)
(§2) The purpose of the homogeneous time-resolved fluorescence energy transfer (HTRF) ligand displacement assay is to determine whether the compounds of the disclosure are competitive with a BODIPY-labeled compound; “fluorescent tracer” aka [6-cyclopropyl-5-(17-{5-[(3,5-dimethyl-2H-pyrrol-2-ylidene-KN)methyl]-1H-pyrrol-2-yl-κN}-15-oxo-5,8,11-trioxa-2,14-diazaheptadecan-1-yl)-N-(3-{3-[(4-methyl-4H-1,2,4-triazol-3-yl)methyl]oxetan-3-yl}phenyl)pyridine-2-carboxamidato](difluorido)boron and to assess CBL-B binding selectivity over C-CBL. The synthesis of this fluorescent tracer compound is described below.
(§3) Purified CBL-B (residues 36-427) and C-CBL (residues 46-435) proteins from baculovirus-infected insect cells were biotin labeled on their amino-terminal AviTag™ epitopes by the E. coli biotin ligase BirA to bind terbium-labeled streptavidin (SA-Tb). After optimizing the assays and determining KD values for the fluorescent tracer to CBL-B and C-CBL, compounds were tested using three-fold serial dilutions in duplicate from a top concentration of […] with a final DMSO concentration of 2%. […] The Ki (nM) values reported are the geometric means (GMean) of the number of tests conducted.
A general note: TR-FRET usually uses a lanthanide donor and a delayed reading to cut background.

The next test has as its target T2, CBL-B (residues 36-427) (Homo sapiens, UniProt Q13191).
T2 construct: Purified CBL-B (residues 36-427) and C-CBL (residues 46-435) proteins from baculovirus-infected insect cells; made in house; host or cells: baculovirus-infected insect cells
Put plainly: Ligand Displacement Assay (LDA), HTRF competitive binding against BODIPY-labeled fluorescent tracer, CBL-B. To be noted: geometric mean of the number of tests, read-out: CBL-B Ki (nM) GMean.
From the text: as §1, §2, §3

For orientation: Ki means the dissociation constant of the complex between target and ligand, obtained from inhibition or displacement.

On to `CC(N[C@H]1CCC[C@@H]1O)c1nc(C(F)(F)F)cc2c(-c3cccc([C@H](c4nncn4C)C4CCCCC4)c3)n[nH]c12` (single isomer, unassigned) [Example C102], for which the Ki at C-CBL (residues 46-435) came out at 113 nM; at CBL-B (residues 36-427) it was 10.7 nM.
Regarding `CC(N[C@H](C)[C@H](C)O)c1nc(C(F)(F)F)cc2c(-c3cccc([C@H](c4nncn4C)C4CCC4)c3)n[nH]c12` (single isomer, unassigned) [Example C116], the Ki on C-CBL (residues 46-435) is 204 nM; at CBL-B (residues 36-427), 18.2 nM.
`CC(NC[C@H](C)O)c1nccc2c(-c3cccc([C@H](c4nncn4C)C4CCC4)c3)n[nH]c12` (single isomer, unassigned) [Example C125]: the inhibitory constant (Ki) on C-CBL (residues 46-435) was found to be 147 nM; at CBL-B (residues 36-427), 12.2 nM.
Taken in the same sequence, the figures for `C[C@H](N[C@H]1COC[C@H]1O)c1nc(C(F)(F)F)cc2c(-c3cccc([C@H](c4nncn4C)C4CCC4)c3)n[nH]c12` (single isomer, unassigned) [Example D57] were 46.7 nM and 5.2 nM.
Taken in the same sequence, the figures for `C[C@@H](N[C@H]1COC[C@H]1O)c1nc(C(F)(F)F)cc2c(-c3cccc([C@H](c4nncn4C)C4CCC4)c3)n[nH]c12` (single isomer, unassigned) [Example D58] were 173 nM and 14.3 nM.
In the case of `C[C@@H](N[C@@H]1COC[C@H]1O)c1nc(C(F)(F)F)cc2c(-c3cccc([C@H](c4nncn4C)C4CCC4)c3)n[nH]c12` (single isomer, unassigned) [Example D60], the figures for the Ki at C-CBL (residues 46-435) and at CBL-B (residues 36-427) were 82.3 nM and 12.3 nM, respectively.
Regarding `C[C@H](N[C@H]1COC[C@H]1O)c1nc(C(F)(F)F)cc2c(-c3cccc([C@H](c4nncn4C)C4CCC4)c3)n[nH]c12` (single isomer, unassigned) [Example D61], the Ki at C-CBL (residues 46-435) was determined as 145 nM; on CBL-B (residues 36-427), 22 nM.
Taken in the same sequence, the figures for `C[C@@H](N[C@H]1COC[C@@H]1O)c1nc(C(F)(F)F)cc2c(-c3cccc([C@H](c4nncn4C)C4CCC4)c3)n[nH]c12` (single isomer, unassigned) [Example D62] were 39.8 nM and 4.3 nM.
With `CC[C@@H](c1cccc(-c2n[nH]c3c([C@H](C)NC[C@H](C)O)nc(C(F)(F)F)cc23)c1)c1nncn1C` (single isomer, unassigned) [Example D78], the inhibition constant (Ki) at C-CBL (residues 46-435) was 271 nM; on CBL-B (residues 36-427), 71.2 nM.
Taken in the same sequence, the figures for `CC[C@@H](c1cccc(-c2n[nH]c3c([C@@H](C)NC[C@H](C)O)nc(C(F)(F)F)cc23)c1)c1nncn1C` (single isomer, unassigned) [Example D79] were 1160 nM and 296 nM.
`Cn1cnnc1[C@@H](c1cccc(-c2n[nH]c3c(CN[C@H]4CC[C@H]4O)nc(C(F)(F)F)cc23)c1)C1CCC1` (single isomer, unassigned) [Example D92]: the figures for the inhibition constant (Ki) at C-CBL (residues 46-435) and at CBL-B (residues 36-427) were 36.1 nM and 4.5 nM, respectively.
Take `Cn1cnnc1[C@@H](c1cccc(-c2n[nH]c3c(CN[C@@H]4CC[C@@H]4O)nc(C(F)(F)F)cc23)c1)C1CCC1` (single isomer, unassigned) [Example D93]: the Ki at C-CBL (residues 46-435) is 2.4 nM; on CBL-B (residues 36-427), 0.8 nM.
For the compound `CC(O)c1nc(C2CC2)cc2c(-c3cccc(C4(Cc5nncn5C)COC4)c3)n[nH]c12` (single isomer, unassigned) [Example H5, (1ξ)-1-[5-cyclopropyl-3-(3-{3-[(4-methyl-4H-1,2,4-triazol-3-yl)methyl]oxetan-3-yl}phenyl)-1H-pyrazolo[3,4-c]pyridin-7-yl]ethan-1-ol], the inhibition constant (Ki) at C-CBL (residues 46-435) was determined as 93.6 nM; at CBL-B (residues 36-427), 28.5 nM.
Taken in the same sequence, the figures for `CC(O)c1nc(C2CC2)cc2c(-c3cccc(C4(Cc5nncn5C)COC4)c3)n[nH]c12` (single isomer, unassigned) [Example H6, (1ξ)-1-[5-cyclopropyl-3-(3-{3-[(4-methyl-4H-1,2,4-triazol-3-yl)methyl]oxetan-3-yl}phenyl)-1H-pyrazolo[3,4-c]pyridin-7-yl]ethan-1-ol] were 142 nM and 35.6 nM.
`CC(NC(=O)[C@@H](C)O)c1nc(C(F)(F)F)cc2c(-c3cccc([C@H](c4nncn4C)C4CCC4)c3)n[nH]c12` (single isomer, unassigned) [Example I6]: the Ki at C-CBL (residues 46-435) came out at 84.3 nM; at CBL-B (residues 36-427), 7.8 nM.
For `Cn1cnnc1[C@@H](c1cccc(-c2n[nH]c3c(C4CCCN4)nc(C(F)(F)F)cc23)c1)C1CCC1` (single isomer, unassigned) [Example L3], the figures for the Ki at C-CBL (residues 46-435) and at CBL-B (residues 36-427) were 159 nM and 20.1 nM, respectively.
Taken in the same sequence, the figures for `Cn1cnnc1[C@@H](c1cccc(-c2n[nH]c3c(C4CCCN4)nc(C(F)(F)F)cc23)c1)C1CCC1` (single isomer, unassigned) [Example L4] were 178 nM and 19.2 nM.
In the case of `CC(=O)NC(C)c1nc(C(F)(F)F)cc2c(-c3cccc(C4(Cc5nncn5C)COC4)c3)n[nH]c12` (single isomer, unassigned) [Example M1, N-{(1ξ)-1-[3-(3-{3-[(4-methyl-4H-1,2,4-triazol-3-yl)methyl]oxetan-3-yl}phenyl)-5-(trifluoromethyl)-1H-pyrazolo[3,4-c]pyridin-7-yl]ethyl}acetamide], the Ki was 79.4 nM at C-CBL (residues 46-435) and 26.3 nM at CBL-B (residues 36-427).
Regarding `CC(=O)NC(C)c1nc(C(F)(F)F)cc2c(-c3cccc([C@H](c4nncn4C)C4CCC4)c3)n[nH]c12` (single isomer, unassigned) [Example M2], the Ki on C-CBL (residues 46-435) turned out to be 225 nM; at CBL-B (residues 36-427), 30.9 nM.
For the compound `CC(=O)NC(C)c1nc(C(F)(F)F)cc2c(-c3cccc(C4(Cc5nncn5C)COC4)c3)n[nH]c12` (single isomer, unassigned) [Example M6, N-{(1ξ)-1-[3-(3-{3-[(4-methyl-4H-1,2,4-triazol-3-yl)methyl]oxetan-3-yl}phenyl)-5-(trifluoromethyl)-1H-pyrazolo[3,4-c]pyridin-7-yl]ethyl}acetamide], the Ki on C-CBL (residues 46-435) turned out to be 68.6 nM; on CBL-B (residues 36-427) it was 19.5 nM.
Turning to `Cn1cnnc1[C@@H](c1cccc(-c2n[nH]c3ncc(Cl)cc23)c1)C1CCC1` [Example A4, 5-chloro-3-{3-[(R)-cyclobutyl(4-methyl-4H-1,2,4-triazol-3-yl)methyl]phenyl}-1H-pyrazolo[3,4-b]pyridine], the Ki on C-CBL (residues 46-435) was found to be 279 nM; on CBL-B (residues 36-427) it was 17.9 nM.
For `Cn1cnnc1[C@@H](c1cccc(-c2n[nH]c3ncc(C(F)(F)F)cc23)c1)C1CCC1` [Example A5, 3-{3-[(R)-cyclobutyl(4-methyl-4H-1,2,4-triazol-3-yl)methyl]phenyl}-5-(trifluoromethyl)-1H-pyrazolo[3,4-b]pyridine], the inhibitory constant (Ki) at C-CBL (residues 46-435) was 1060 nM; on CBL-B (residues 36-427) it was 89.1 nM.
Taken in the same sequence, the figures for `Cn1cnnc1CC1(c2cccc(-c3n[nH]c4cnc(C(F)(F)F)nc34)c2)COC1` [Example B2, 3-(3-{3-[(4-methyl-4H-1,2,4-triazol-3-yl)methyl]oxetan-3-yl}phenyl)-5-(trifluoromethyl)-1H-pyrazolo[4,3-d]pyrimidine] were 2400 nM and 398 nM.
As to `Cn1cnnc1CC1(c2cccc(-c3n[nH]c4cc(F)c(F)cc34)c2)COC1` [Example B5, 5,6-difluoro-3-(3-{3-[(4-methyl-4H-1,2,4-triazol-3-yl)methyl]oxetan-3-yl}phenyl)-1H-indazole], the Ki is 375 nM at C-CBL (residues 46-435) and 58.9 nM on CBL-B (residues 36-427).
Taken in the same sequence, the figures for `Cn1cnnc1CC1(c2cccc(-c3n[nH]c4ccc(F)cc34)c2)COC1` [Example B6, 5-fluoro-3-(3-{3-[(4-methyl-4H-1,2,4-triazol-3-yl)methyl]oxetan-3-yl}phenyl)-1H-indazole] were 437 nM and 71.8 nM.
Turning to `CN(C)c1nc2[nH]nc(-c3cccc([C@H](c4nncn4C)C4CCC4)c3)c2cc1C(F)(F)F` [Example E1, 3-{3-[(R)-cyclobutyl(4-methyl-4H-1,2,4-triazol-3-yl)methyl]phenyl}-N,N-dimethyl-5-(trifluoromethyl)-1H-pyrazolo[3,4-b]pyridin-6-amine], the Ki on C-CBL (residues 46-435) stood at 2320 nM; at CBL-B (residues 36-427) it was 268 nM.
On to `CN1CCC[C@@H]1COc1nc(C(F)(F)F)cc2c(-c3cccc(C4(Cc5nncn5C)COC4)c3)n[nH]c12` [Example J6, 7-{[(2R)-1-methylpyrrolidin-2-yl]methoxy}-3-(3-{3-[(4-methyl-4H-1,2,4-triazol-3-yl)methyl]oxetan-3-yl}phenyl)-5-(trifluoromethyl)-1H-pyrazolo[3,4-c]pyridine], for which the results for the Ki at C-CBL (residues 46-435) and at CBL-B (residues 36-427) were 196 nM and 48.9 nM, respectively.

Values taken from patent publication US20260125375A1 (Pfizer Inc., priority 2022, published 2026).
